In article PMC5011342, “A high throughput drug screening assay to identify compounds that promote oligodendrocyte differentiation using acutely dissociated and purified oligodendrocyte precursor cells” (BMC Research Notes, 2016):
Counter-ions that a name gives are not always drawn. Like-named read-outs stand apart in the source and are kept apart here.

Columns and labels:
[1] = tested on: expanded OPCs; assay: cells; settings: for viability at 0.1 µM / viability at 1 µM / viability at 10 µM: Rattus norvegicus, 72 h; for 0.1 µM (% DMSO) / 1 µM (% DMSO) / 10 µM (% DMSO): alamarBlue viability of expanded OPCs, relative to DMSO control; for 0.1 µM (% DMSO): compound at 0.1 µM; for 1 µM (% DMSO): compound at 1 µM; for 10 µM (% DMSO): compound at 10 µM
Procedure, shortened: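 Toxicity screen: compounds added at 0.1, 1 and 10 µM to PDGF-AA-expanded OPCs in 96-well plates, 3-day incubation at 37 °C, 10% CO2, then alamarBlue 1:10 for 4 h with fluorescence readout. Results set screening doses of 10/2, 2/0.4 or 0.4/0.08 µM.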

[2] = tested on: acutely dissociated and purified rat OPCs; assay: Acute OL differentiation assay (MBP expression/cell, immunofluorescent image quantification); format: cell-based; settings: Rattus norvegicus, sheet "All OLga data"
Procedure, shortened: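 This acute differentiation assay used purified rat OPCs from postnatal day 6–7 pups, seeded into PDL/laminin-coated 96-well plates in differentiation medium lacking PDGF and FGF. Compounds were applied in quadruplicate after a 1–2 h preincubation at 37 °C, 10 % CO2, with 0.1 % DMSO negative and 40 ng/ml T3 positive controls in eight wells. After fixation on DIV4, anti-MBP immunofluorescence images yielded MBP expression/cell.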

[3] = read-out: 0.1 µM (% DMSO), alamarBlue viability, NCC library compound at 0.1 µM, sheet "All Tox data"
[4] = read-out: 1 µM (% DMSO), alamarBlue viability, NCC library compound at 1 µM, sheet "All Tox data"
[5] = read-out: 10 µM (% DMSO), alamarBlue viability, NCC library compound at 10 µM, sheet "All Tox data"
[6] = 0.4 uM test compound, relative to quetiapine, read-out: OL differentiation, 0.4 uM (% Quet)
[7] = 2 uM test compound, relative to quetiapine, read-out: OL differentiation, 2 uM (% Quet)
[8] = test compound at 0.4 uM, MBP expression relative to quetiapine, NCC library screen, read-out: 0.4 uM (% Quet)
[9] = test compound at 2 uM, MBP expression relative to quetiapine, NCC library screen, read-out: 2 uM (% Quet)
[10] = read-out: 0.1 µM (% DMSO), alamarBlue viability of expanded OPCs, compound at 0.1 µM, sheet All Tox data
[11] = read-out: 1 µM (% DMSO), alamarBlue viability of expanded OPCs, compound at 1 µM, sheet All Tox data
[12] = read-out: 10 µM (% DMSO), alamarBlue viability of expanded OPCs, compound at 10 µM, sheet All Tox data
[13] = 10 uM test compound, relative to quetiapine, read-out: OL differentiation, 10 uM (% Quet)

`CO[C@H]1/C=C/O[C@@]2(C)Oc3c(C)c(O)c4c(O)c(c(/C=N/N5CCN(C6CCCC6)CC5)c(O)c4c3C2=O)NC(=O)/C(C)=C\C=C\[C@H](C)[C@H](O)[C@@H](C)[C@@H](O)[C@@H](C)[C@H](OC(C)=O)[C@@H]1C` [Rifapentine] gave a viability at 0.1 µM [1, 3] of 94.8%, a viability at 1 µM [1, 4] of 73% and a viability at 10 µM [1, 5] of 25.3%. The “0.1 µM (% DMSO)” value [1] was 89.9 % DMSO, the “1 µM (% DMSO)” value [1] was 78.4 % DMSO and the “10 µM (% DMSO)” value [1] was 40.0 % DMSO. The activation at 0.4 µM [2, 6] was -16.7%, the activation at 2 µM [2, 7] was -70.1% and the activation at 0.4 µM [2, 8] was -18.6%. It also gave an activation at 2 µM [2, 9] of -118%.
Work on `CO[C@H]1/C=C/O[C@@]2(C)Oc3c(C)c(O)c4c(O)c(c5c(nc6cc(C)ccn65)c4c3C2=O)NC(=O)/C(C)=C\C=C\[C@H](C)[C@H](O)[C@@H](C)[C@@H](O)[C@@H](C)[C@H](OC(C)=O)[C@@H]1C` [Rifaximin] yielded a viability at 0.1 µM [1, 3] of 101%, a viability at 1 µM [1, 4] of 69.4% and a viability at 10 µM [1, 5] of 21%. For the same molecule, the activation at 0.4 µM [2, 6] was -15.2% and the activation at 2 µM [2, 7] was -77.9%.
With `CC(N)C12CC3CC(CC(C3)C1)C2` (centres unmarked) [Rimantadine] the “0.1 µM (% DMSO)” value [1] was 89.9 % DMSO, the “1 µM (% DMSO)” value [1] was 83.2 % DMSO and the “10 µM (% DMSO)” value [1] was 32.9 % DMSO. It also gave an activation at 0.4 µM [2, 8] of -17.2% and an activation at 2 µM [2, 9] of -11.2%.
Work on `C[C@@H]1CN(CCCn2c3ccccc3c3ccccc32)C[C@H](C)N1` [Rimcazole] yielded a viability at 0.1 µM [1, 3] of 61.7%, a viability at 1 µM [1, 4] of 33.6% and a viability at 10 µM [1, 5] of 9.5%. It also gave an activation at 0.08 µM ([2]; test compound at 0.08 uM, NCC library screen, relative to quetiapine, read-out: 0.08 uM (% Quet)) of -5.2% and an activation at 0.4 µM ([2]; test compound at 0.4 uM, NCC library screen, relative to quetiapine, read-out: 0.4 uM (% Quet)) of 23.1%.
Work on `Cc1nc2n(c(=O)c1CCN1CCC(c3noc4cc(F)ccc34)CC1)CCCC2` [Risperidone] yielded a viability at 0.1 µM [1, 10] of 92.3%, a viability at 1 µM [1, 11] of 99.8% and a viability at 10 µM [1, 12] of 90.2%. It also gave an activation at 2 µM [2, 7] of 2.4% and an activation at 10 µM [2, 13] of 31.6%.
`CC(C)c1nc(CN(C)C(=O)N[C@H](C(=O)N[C@@H](Cc2ccccc2)C[C@H](O)[C@H](Cc2ccccc2)NC(=O)OCc2cncs2)C(C)C)cs1` [Ritonavir] gave a viability at 0.1 µM [1, 10] of 96.5%, a viability at 1 µM [1, 11] of 97.4% and a viability at 10 µM [1, 12] of 69.8%. For the same molecule, the activation at 2 µM [2, 7] was -21.7% and the activation at 10 µM [2, 13] was -35.8%.
`CN(C)CCc1c[nH]c2ccc(Cn3cncn3)cc12` [Rizatriptan] gave a viability at 0.1 µM [1, 10] of 110%, a viability at 1 µM [1, 11] of 94.8% and a viability at 10 µM [1, 12] of 86.3%. It also gave an activation at 2 µM [2, 7] of -2.6% and an activation at 10 µM [2, 13] of -0.44%.
With `CS(=O)(=O)c1ccc(C2=C(c3ccccc3)C(=O)OC2)cc1` [Rofecoxib] the viability at 0.1 µM [1, 10] was 91.5%, the viability at 1 µM [1, 11] was 97.2% and the viability at 10 µM [1, 12] was 115%. For the same molecule, the activation at 2 µM [2, 7] was -10.8% and the activation at 10 µM [2, 13] was -9%.
Work on `COc1ccc(C2CNC(=O)C2)cc1OC1CCCC1` (centres unmarked) [Rolipram] yielded a viability at 0.1 µM [1, 10] of 97.1%, a viability at 1 µM [1, 11] of 92.8% and a viability at 10 µM [1, 12] of 86.8%. The activation at 2 µM [2, 7] was 11.2% and the activation at 10 µM [2, 13] was -14.2%.
Work on `CN(C)[C@@H]1C(O)=C(C(=O)NCN2CCCC2)C(=O)[C@@]2(O)C(O)=C3C(=O)c4c(O)cccc4[C@@](C)(O)[C@H]3C[C@@H]12` [Rolitetracycline] yielded a viability at 0.1 µM [1, 3] of 94.4%, a viability at 1 µM [1, 4] of 92.4% and a viability at 10 µM [1, 5] of 69.8%. It also gave an activation at 2 µM ([2]; test compound at 2 uM, NCC library screen, relative to quetiapine, read-out: 2 uM (% Quet)) of 1.5% and an activation at 10 µM ([2]; test compound at 10 uM, NCC library screen, relative to quetiapine, read-out: 10 uM (% Quet)) of -11.1%.
With `CN(CCOc1ccc(CC2SC(=O)NC2=O)cc1)c1ccccn1` (centres unmarked) [Rosiglitazone maleate] the viability at 0.1 µM [1, 10] was 95.3%, the viability at 1 µM [1, 11] was 103% and the viability at 10 µM [1, 12] was 158%. For the same molecule, the activation at 2 µM [2, 7] was 7.9%.
